Legend:
[1] = test system: normal primary NK cells, pool 3 (3 donors) (IL-2 2.5 ng/mL); assay: percent inhibition of viability; higher = more inhibition; conditions: 72 h
YT (IL-2 2.5 ng/mL) [2] = assay: as above; conditions: 72 h
IMC-1 (IL-2 20 ng/mL) [3] = assay: as above; conditions: 72 h
SNK-6 (IL-2 2.5 ng/mL) [4] = assay: as above; conditions: 72 h
[5] = test system: normal primary NK cells, pool 2 (3 donors) (IL-2 2.5 ng/mL); assay: as above; conditions: 72 h
[6] = test system: normal primary NK cells, pool 1 (3 donors) (IL-2 2.5 ng/mL); assay: as above; conditions: 72 h
KHYG-1 (IL-2 2.5 ng/mL) [7] = assay: as above; conditions: 72 h
DERL-7 (IL-2 2.5 ng/mL) [8] = assay: as above; conditions: 72 h
NK-92 (IL-2 2.5 ng/mL) [9] = assay: as above; conditions: 72 h
[10] = test system: normal primary NK cells, pool 1 (3 donors), resting (IL-2 0 ng/mL); assay: as above; conditions: 72 h
NK-YS (IL-2 2.5 ng/mL) [11] = assay: as above; conditions: 72 h
KAI3 (IL-2 2.5 ng/mL) [12] = assay: as above; conditions: 72 h
NKL (IL-2 2.5 ng/mL) [13] = assay: as above; conditions: 72 h
[14] = test system: normal primary NK cells, pool 3 (3 donors) (IL-2 2.5 ng/mL); assay: drug sensitivity score (DSS) (DSS units); higher = more sensitive; extreme values may be limits of the assay; conditions: 72 h
YT (IL-2 2.5 ng/mL) [15] = assay: as above; conditions: 72 h
IMC-1 (IL-2 20 ng/mL) [16] = assay: as above; conditions: 72 h
SNK-6 (IL-2 2.5 ng/mL) [17] = assay: as above; conditions: 72 h
[18] = test system: normal primary NK cells, pool 2 (3 donors) (IL-2 2.5 ng/mL); assay: as above; conditions: 72 h
[19] = test system: normal primary NK cells, pool 1 (3 donors) (IL-2 2.5 ng/mL); assay: as above; conditions: 72 h
KHYG-1 (IL-2 2.5 ng/mL) [20] = assay: as above; conditions: 72 h
DERL-7 (IL-2 2.5 ng/mL) [21] = assay: as above; conditions: 72 h
NK-92 (IL-2 2.5 ng/mL) [22] = assay: as above; conditions: 72 h
[23] = test system: normal primary NK cells, pool 1 (3 donors), resting (IL-2 0 ng/mL); assay: as above; conditions: 72 h
NK-YS (IL-2 2.5 ng/mL) [24] = assay: as above; conditions: 72 h
KAI3 (IL-2 2.5 ng/mL) [25] = assay: as above; conditions: 72 h
NKL (IL-2 2.5 ng/mL) [26] = assay: as above; conditions: 72 h
[27] = test system: normal NK cells expanded with K562-aAPC; assay: as above; conditions: 72 h; IL-2 2.5 ng/mL
Protocol: (§1)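 Drug sensitivity and resistance testing on K562-aAPC-expanded normal NK cells: 5 concentrations (10-fold steps over a 10,000-fold range), 72 h at 37 °C, viability by CellTiter-Glo normalised to DMSO and benzethonium chloride controls; DSS from the fitted curve.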

[28] = test system: normal NK cells expanded with K562-aAPC; assay: percent inhibition of viability; higher = more inhibition; conditions: 72 h, IL-2 2.5 ng/mL
Protocol: as §1

Cc1ccc(Nc2nccc(N(C)c3ccc4c(C)n(C)nc4c3)n2)cc1S(N)(=O)=O [Pazopanib] (max concentration tested 10000 nM)
percent inhibition of viability [%]
Conditions | 1 nM | 10 nM | 100 nM | 1000 nM | 10000 nM
DERL-7 (IL-2 2.5 ng/mL) [8] | -0.93 | 9.12 | -0.5 | -6.76 | -10.4
IMC-1 (IL-2 20 ng/mL) [3] | -4.11 | -5.35 | 2.08 | 16.6 | 44.2
KAI3 (IL-2 2.5 ng/mL) [12] | -4.79 | -5.2 | 1.76 | 10.1 | 18.6
KHYG-1 (IL-2 2.5 ng/mL) [7] | -2.36 | -0.84 | 4.74 | 27.1 | 36.6
NK-92 (IL-2 2.5 ng/mL) [9] | 3.54 | 3.74 | 11.9 | 27.6 | 33.7
NK-YS (IL-2 2.5 ng/mL) [11] | -0.74 | 0.29 | 6.42 | 12.1 | 15.1
NKL (IL-2 2.5 ng/mL) [13] | -16.9 | -17.8 | -11.3 | 13.6 | 14.8
SNK-6 (IL-2 2.5 ng/mL) [4] | 7.81 | 14.5 | 36.6 | 53.3 | 48.6
YT (IL-2 2.5 ng/mL) [2] | 0.54 | 3.53 | 8.86 | 14.9 | 16.6
[1] | -10.1 | -9.49 | -4.17 | -3.69 | -2.21
[5] | -17.7 | -14.4 | -13.5 | -2.24 | 2.28
[6] | -5.94 | 2.19 | -7.48 | -8.52 | -1.45
[10] | 8.82 | 5.43 | -6.14 | -6.41 | 4.16
[28] | 3.24 | -2.13 | 1.77 | 5.99 | 11.2

Conditions | drug sensitivity score
DERL-7 (IL-2 2.5 ng/mL) [21] | 0
IMC-1 (IL-2 20 ng/mL) [16] | 4.34
KAI3 (IL-2 2.5 ng/mL) [25] | 1.17
KHYG-1 (IL-2 2.5 ng/mL) [20] | 5.18
NK-92 (IL-2 2.5 ng/mL) [22] | 5.68
NK-YS (IL-2 2.5 ng/mL) [24] | 1.11
NKL (IL-2 2.5 ng/mL) [26] | 1.08
SNK-6 (IL-2 2.5 ng/mL) [17] | 15
YT (IL-2 2.5 ng/mL) [15] | 1.79
[14] | 0
[18] | 0
[19] | 0
[23] | 0
[27] | 0.02

NS(=O)(=O)OC[C@@H]1C[C@@H](n2ccc3c(N[C@H]4CCc5ccccc54)ncnc32)C[C@@H]1O [Pevonedistat] (max concentration tested 10000 nM)
percent inhibition of viability [%]
Conditions | 1 nM | 10 nM | 100 nM | 1000 nM | 10000 nM
DERL-7 (IL-2 2.5 ng/mL) [8] | 1.08 | 2.36 | -6.58 | 91.5 | 101
IMC-1 (IL-2 20 ng/mL) [3] | 0.59 | 6.87 | 46.6 | 92.8 | 98.2
KAI3 (IL-2 2.5 ng/mL) [12] | 9.59 | 12.4 | 70.2 | 95 | 100
KHYG-1 (IL-2 2.5 ng/mL) [7] | 3.14 | -1.1 | 71.7 | 105 | 106
NK-92 (IL-2 2.5 ng/mL) [9] | -8.15 | 6.99 | 1.09 | 75.8 | 109
NK-YS (IL-2 2.5 ng/mL) [11] | 0.95 | -1.33 | 3.83 | 78.1 | 98.4
NKL (IL-2 2.5 ng/mL) [13] | -12.9 | -14.6 | -16.9 | 92.3 | 104
SNK-6 (IL-2 2.5 ng/mL) [4] | 23.6 | 3.72 | 89 | 97.2 | 99.5
YT (IL-2 2.5 ng/mL) [2] | -2.08 | 2.87 | 62.7 | 79.6 | 82.8
[1] | -5.71 | 5 | 10.3 | 68.8 | 81
[5] | -6.66 | 4.92 | 9.96 | 45 | 64.2
[6] | -6.09 | 19.2 | 23.3 | 57.4 | 69.8
[10] | 1.82 | 21.5 | -26.7 | -18.9 | -22.4
[28] | -5 | -5.72 | -9.68 | 70.2 | 80.3

Conditions | drug sensitivity score
DERL-7 (IL-2 2.5 ng/mL) [21] | 16.3
IMC-1 (IL-2 20 ng/mL) [16] | 22.6
KAI3 (IL-2 2.5 ng/mL) [25] | 27.2
KHYG-1 (IL-2 2.5 ng/mL) [20] | 26.2
NK-92 (IL-2 2.5 ng/mL) [22] | 14.2
NK-YS (IL-2 2.5 ng/mL) [24] | 15
NKL (IL-2 2.5 ng/mL) [26] | 16.1
SNK-6 (IL-2 2.5 ng/mL) [17] | 29
YT (IL-2 2.5 ng/mL) [15] | 22.8
[14] | 14
[18] | 9.66
[19] | 14
[23] | 0
[27] | 12.6
